What was measured:
[1] = Antimicrobial activity of pure commercial preparations; format: cell-based; details: concentrations as high as 0.125M
Text: Reuterin Is a Product of Glycerol Fermentation. Reuterin is a new product associated with the same type of heterolactic fermentation of glycerol that occurs in other Lactobacillus species. Reuterin can be isolated and identified as a product of glycerol fermentation by L. reuteri using HPLC.

E. coli [2] = assay: Co-culture of E. coli with and without L. reuteri 1063 on various substrates (Table 1); format: cell-based; design: % Inhibition: concentration or dose not given beside the values; details: for E. coli (CFU/ml) after 6 hours: substrate 20 mM (C6, C5) or 40 mM (C3), inoculum 5 x 10^6 CFU per ml E. coli
Procedure: (§1) Conditions under which reuterin is produced have been determined. Reuterin is not produced under aerobic conditions (atmospheric oxygen concentration) but under reduced oxygen tension. It is produced when L. reuteri is cultured anaerobically (or semi-anaerobically in still culture) in the MIC assay medium described above containing 20-500 mM glycerol or glyceraldehyde in place of glucose as the major carbon and energy source. […] Twenty other substances, including hexoses, hexitols, pentoses, pentitols, disaccharides and a variety of phosphorylated and non-phosphorylated C3-substances, were tested for their ability to support reuterin production. […] The medium, containing a substrate at 20 mM (C6 and C5 substrates) or 40 mM (C3 substrates) concentrations, was inoculated with 5 x 10^6 colony-forming units (CFU) per ml E. coli with and without L. reuteri. Only glycerol and glyceraldehyde yielded reuterin. Also, réuterin production from glycerol is inhibited when glucose or another growth substrate is included in the production medium. The results shown in Table 2 indicate the percent inhibition in viable count of a 6.7 x 10^7 CFU per ml E. coli inoculum by supernatant fractions of L. reuteri grown on various indicated substrates at 40 mM concentrations.

spoilage pseudomonads = assay: Fish fillet storage: spoilage bacteria count (Table 8); details: fish fillets dipped in treatment solution, 8°C for 4 days
Procedure: Lactobacillus reuteri plus glycerol constitutes a novel effective food preservation process. Evidence for this was obtained using storage of fish as a model system. This study was conducted as follows: Fish fillets (Herring, Clupea harengas) were dipped in the following treatment solution: • control: no treatment • glycerol: 250 mM glycerol solution • strain 1068: 250 mM glycerol solution containing 4x10^9 CFU per ml L. reuteri 1068 (a non-reuterin producing strain) • strain 1063: 250 mM glycerol solution containing 4x10^9 CFU per ml L. reuteri 1063 The fillets (2 parallel samples each) were kept in large Petri dishes at 8°C for 4 days in a refrigerator. The ammonia content and CFU of relevant bacteria (i.e., spoilage pseudomonads and added lactobacilli) were then analyzed to evaluate the shelf-life of the food product. […] L. reuteri 1068 did so to some extent but not enough to prevent spoilage which is generally indicated by a log 8.4 pseudomonad count. • (iii) the retarding effect of L. reuteri and glycerol on spoilage bacteria has a strong reducing effect on ammonia liberation. • (iv) a food preservative effect of L. reuteri plus glycerol is indicated for all kinds of food spoilage.

E. coli [3] = assay: Inhibition of E. coli by supernatant fractions of L. reuteri grown on various substrates (Table 2); format: cell-based
Procedure: as §1

SMILES: OCC(O)CO [Glycerol]
- antimicrobial activity [1]: essentially devoid of antimicrobial activity
- E. coli (CFU/ml) after 6 hours (E. coli [2]; Addition of L. reuteri 1063: +): 5.5x10^4 CFU/ml
- E. coli (CFU/ml) after 6 hours (E. coli [2]; Addition of L. reuteri 1063: -): 1.2x10^7 CFU/ml
- % Inhibition (E. coli [2]; E. coli with versus without L. reuteri 1063 on the substrate, 6 hours): 99%
- Log CFU bacteria per g Pseudomonads (kings agar) (spoilage pseudomonads): 9.4 Log CFU bacteria per g
- % Inhibition (E. coli [3]; percent inhibition in viable count of 6.7 x 10^7 CFU per ml E. coli inoculum by supernatant fraction, substrate 40 mM): 99.9%
- Growth of E. coli presence of centrifuged culture medium CFU/ml after 6 hours (E. coli [3]; supernatant fraction of L. reuteri grown on the substrate at 40 mM, inoculum 6.7 x 10^7 CFU per ml E. coli): 4.5x10^5 CFU/ml

Reference: patent publication EP0698347B1, “Food composition containing reuterin” (BIOGAIA BIOLOGICS AB, priority 1987, dated 1988)
